The values that follow come from US7264932B2, “Nuclease inhibitor cocktail” (Applera Corporation, priority 1999, dated 2007).

Where “and” joins values, the source holds several entries; their conditions need not be identical. Identical values can stand only once.

The subject of assay [1] is RNase A, 1, and T1. The experiment in a line: Anti-RNase antibodies / Specific Anti-RNase Cocktail with added non-antibody inhibitor. It counts as biochemical. The note with it: for effect on action of Specific Anti-RNase Cocktail against RNase A, 1, and T1: detergent added to cocktail at 0.1% to 1%. On the procedure:
The activity of an anti-nuclease cocktail is readily determined using radiolabeled RNA or DNA to detect the inhibition of nuclease by anti-nuclease antibodies in the anti-nuclease cocktail. […] Assay buffer, nuclease and an anti-nuclease cocktail are then added to 0.5 ml microfuge tubes. A mixture comprising assay buffer, RNA or DNA and radiolabeled RNA or DNA is added to the microfuge tubes, and the tubes are vortexed and microfuged. After incubation of the tubes at 37° C. for 30 minutes, a portion of the tube contents is removed and placed into gel loading buffer. After mixing, the combination is loaded onto a gel, typically a 8M urea/5% acrylamide gel, which is exposed to film.
Radiolabeled RNA was used to detect the inhibition of RNase A, RNase T1, and RNase 1 by specific antibodies.
The “MIX” was prepared by combining 10× Assay Buffer (0.9 μl/rxn), 5 mg/ml yeast RNA (0.4 μl/rxn), ^32P-labeled β actin RNA (1 μl/rxn), and nuclease-free H2O (6.7 μl/rxn), for a total of 9 μl/rxn.
1× Assay Buffer was added first. Then Specific RNase Cocktail, Specific Anti-RNase Cocktail and MIX were added. The tubes are vortexed and microfuged, then incubated at 37° C. for 30 min (Table 9).
At the end of the incubation time, 10 μl of solution was removed from the tube and placed into 10 μl Gel Loading Buffer II. The combination was mixed thoroughly and loaded onto a 8M urea/5% acrylamide gel. The gel was exposed to film for 30 min. at −80° C. with an intensifying screen.

For assay [2], the target named is nuclease (Homo sapiens, UniProt P03950). The experiment in a line: Ki of Lead 1 and Lead 2 analogs (Tables 1 and 2). The format is biochemical. The note with it: Table 1, Lead 1 Analog List.
nuclease, sequence (P03950 25-147): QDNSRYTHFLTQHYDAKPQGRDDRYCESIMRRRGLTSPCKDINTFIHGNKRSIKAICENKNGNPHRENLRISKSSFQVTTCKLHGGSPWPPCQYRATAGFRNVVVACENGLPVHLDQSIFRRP
Assay [3] relates to diluted pancreas lysate. Put plainly: Intactness of total RNA (RNA LabChip), diluted pancreas lysate. The format is biochemical, mouse. On the procedure:
A total of 100 pg/ul e. […].
Pancreatic lysate (0.1 mg/ml) was diluted 1:20,000 in 24 mM Hepes, pH 7.2, 50 mM NaCl, 1 mM MgCl2 and pre-incubated with either 1% SDS or 6.25 mM OVA for 30 s prior to the addition of 2 ug mouse liver total RNA. Reactions were incubated at 25 C for an additional 4 min, quenched, and analyzed on an RNA LabChip.
Mouse pancreatic tissue (5 mg) was disrupted in 50 ul of 24 mM Hepes, pH 7.2, 50 mM NaCl, 1 mM MgCl2. The diluted lysate (1:20,000) was pre-incubated with 50 uM Benzopurpurin B (BpB) for 30 sec and then added to 100 ng/ul mouse liver total RNA (Ambion) and incubated at 23 C for an additional 4 min. Samples were quenched in a guanidinium lysis buffer, and the RNA purified via MEGAclear™ MAG-96 and eluted with 20 ul nuclease-free water. […] These experiments were conducted in the same fashion except that 100 uM BpB was employed. The sample (1 ul) was analyzed by 2100 BioAnalyzer software (Agilent) after separation on an RNA LabChip.
Mouse pancreatic tissue (5 mg) was dounced in 50 ul of 24 mM Hepes, pH 7.2, 50 mM NaCl, 1 mM MgCl2. A diluted lysate (1:20,000) was pre-incubated with 100 uM BpB or the analog Benzopurpurin 4B (Bp4B) for 30 sec and then added to 100 ng/ul mouse liver total RNA (Ambion) and incubated at 23 C for an additional 4 min. Samples were quenched in a guanidinium lysis buffer, and the RNA purified via MEGAclear™ MAG-96 and eluted with 20 ul nuclease-free water. The sample (1 ul) was analyzed by 2100 BioAnalyzer software (Agilent) after separation on an RNA LabChip.
Pancreatic tissue (5 mg) was dounced in 50 ul of 24 mM Hepes, pH 7.2, 50 mM NaCl, 1 mM MgCl2. The lysate was diluted (1:20,000) and then pre-incubated with 200 uM of 467929. […] All samples were pre-incubated for 30 sec before being added to 100 ng/ul mouse liver total RNA (Ambion) and incubated at 23C for an additional 4 min. The RNA was then immediately purified via MEGAclear™ MAG-96 and eluted with 20 ul nuclease-free water. The recovered RNA (1 ul) was analyzed by 2100 BioAnalyzer software after separation on an RNA LabChip.

Assay [4] addresses DNase I (Bos taurus, UniProt P00639). Put plainly: Lambda DNA digestion assay with DNase I. The format is biochemical. The note with it: 0.1 U DNase, inhibitor at 5×Ki. The source says: One application for small molecule RNase inhibitors is as an RNA control agent during enzymatic manipulation of solutions containing RNA. These reactions include in vitro transcription, in vitro translation, DNase digestion, and reverse transcription, among others. […] […] […] All reactions were quenched with EDTA and the cleavage products resolved on a 1% agarose gel.
As a result, compounds such as #467929, 140553, and 180582 may have utility in curbing the activity of residual RNases that may carry over from RNA isolation methods during DNase treatments of the RNA.

Assay [5] concerns one-step RT-PCR with MMLV-RT and SuperTaq, human CDC-2 mRNA. Put plainly: One-step qRT-PCR tolerance, human CDC-2. The format is biochemical. How it is done: The compatibility of #467929 and 227726 were tested in Ambion's MessageSensor RT-PCR Kit according to the supplier's instructions and using primers/probe designed to amplify a ˜100 nt amplicon from the human CDC-2 mRNA. The reaction conditions were: 20-ul one-step RT-PCR with MMLV-RT (0.4 U/ul final) and SuperTaq (0.04 U/ul final). The cycling conditions were: Stage 1. 42 C for 15 minutes Stage 2. 95 C for 5 min, Stage 3. 95 C-15 sec and 60 C-60 sec where Stage 3 is repeated 40 times. The input template was HeLa-S3 total RNA at either 1 ng or 10 ng/reaction. […] Consequently, these compounds may have utility in controlling any RNA degradation that might occur during the cDNA synthesis step of RT-PCR.

In assay [6] the target is MMLV RT RNase H (Moloney murine leukemia virus, UniProt P03355). Put plainly: RT-based RNase H cleavage of RNA:DNA hybrid. It counts as biochemical. How it is done: As described above, Chembridge compound #467929 offered protection from several RNA-specific endonucleolytic activities. […] A 20-mer DNA oligonucleotide was asymmetrically annealed to a 1500 base synthetic RNA to create an RNA:DNA duplex substrate for RNase H. Reactions were initiated with 10 U of MMLV RT in 1× RT buffer (50 mM TrisCl pH 8.3, 75 mM KC, 3 mM MgCl2, 5 mM DTT) containing 500 ng/ul RNA:DNA hybrid. All reactions contained 5% DMSO either with or without the small molecule RNase inhibitor. Samples were incubated for 5 min at 37 C, and quenched with EDTA. Products were resolved on an RNA LabChip. Cleavage products were observed as two equally represented RNA species of 1000 and 500 bases. Product length and yield were determined using the 2100 BioAnalyzer software (Agilent). Table 18 details the level of inhibition of MMLV RT RNase H that is observed as a function of the concentration of compounds 467929 and 227726.

DNase I, sequence (P00639 23-282): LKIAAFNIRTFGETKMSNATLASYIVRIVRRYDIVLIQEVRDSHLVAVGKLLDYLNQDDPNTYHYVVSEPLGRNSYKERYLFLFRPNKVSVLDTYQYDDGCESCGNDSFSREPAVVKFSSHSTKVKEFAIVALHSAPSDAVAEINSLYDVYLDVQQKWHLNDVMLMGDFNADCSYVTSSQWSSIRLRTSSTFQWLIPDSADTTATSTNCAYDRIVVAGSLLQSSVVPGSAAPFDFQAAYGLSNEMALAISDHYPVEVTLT

Turning to `C[C@H](CCC(=O)NCCC[N+](C)(C)CCCS(=O)(=O)[O-])[C@H]1CC[C@H]2[C@@H]3[C@H](O)C[C@@H]4C[C@H](O)CC[C@]4(C)[C@H]3C[C@H](O)[C@]12C` [CHAPS], the “effect on action of Specific Anti-RNase Cocktail against RNase A, 1, and T1” value in assay [1] is “strengthened the action of Specific Anti-Rnase Cocktail against RNase A, 1, and T1”.
For the compound `O=S(=O)(O)c1ccc(-c2ccc(/N=N/c3c(O)ccc4cc(S(=O)(=O)O)ccc34)cc2)cc1` [D726712], the Ki – broadly, a dissociation constant, usually derived from enzyme kinetics or from competition with a known ligand – in assay [2] is roughly 350 µM.
For `[Cl-].[Cl-].[Mg+2]` [MgCl2], in assay [1] (MgCl2 mixed together with cocktail), the “effect of mixing with Specific Anti-RNase Cocktail” value is “best”.
Regarding `CC(=O)Nc1ccc(N=Nc2c(S(=O)(=O)O)cc3cc(S(=O)(=O)O)cc(NC(C)=O)c3c2O)cc1` [acid violet7, acid violet 7], the inhibition constant (Ki) in assay [2] amounted to 71 µM.
In the case of `O=C(O)CC(O)(CC(=O)O)C(=O)O` [citrate, reference compound], in assay [3] (50 mm citrate, pancreas lysate 1:20,000, e. coli total rna, room temperature 4 min), the “protection of total RNA from degradation” value is listed as “significant protection”.
For `Nc1cccc(C(=O)Nc2ccc3c(O)cc(S(=O)(=O)O)cc3c2)c1` [compound 1743], the KI entry in assay [2] is recorded as “in-activeat 75uM”.
Take `Nc1c(OCC(=O)O)ccc2cc(S(=O)(=O)O)ccc12` [compound 16163]: the KI result in assay [2] was “in-activeat 75uM”.
Regarding `O=C(Nc1cc(S(=O)(=O)O)cc2cc(S(=O)(=O)O)cc(O)c12)c1ccccc1` [compound 16169], the KI result in assay [2] is on record as “in-activeat 75uM”.
In assay [2], `Cc1cc(/N=N/c2ccc(S(=O)(=O)O)c3ccccc23)ccc1O` [compound 45557] registered a Ki greater than 500 µM.
As to `Cc1ccccc1/N=N/c1ccc(/N=N/c2c(O)ccc3cc(S(=O)(=O)O)cc(S(=O)(=O)O)c23)c(C)c1` [compound 45601], in assay [2], the Ki is 122 µM.
As to `O=C(Nc1ccc(/N=N/c2ccc3cc(S(=O)(=O)O)cc(S(=O)(=O)O)c3c2)cc1)c1ccc(/N=N/c2c(O)ccc3cc(S(=O)(=O)O)cc(S(=O)(=O)O)c23)cc1` [compound 65841], in assay [2], the affinity corresponds to a Ki of 5 µM.
For the compound `O=S(=O)(O)c1cc(O)c2c(/N=C/c3ccccc3O)cc(S(=O)(=O)O)cc2c1` [compound 88947], the KI entry in assay [2] is on record as “in-activeat 75uM”.
With `O=C(O)C1=NN(c2ccccc2)C(=O)\C1=C/C=C/C=C/C1C(=O)N(c2ccccc2)N=C1C(=O)O` (stereo not shown) [compound 102704, 4-[5-(3-carboxy-5-oxo-1-phe-nyl-1,5-dihydro-4H-pyra-zol-4-ylidene)-1,3-penta-dien-1-yl]-5-hy-droxy-1-phenyl-1H-pyra-zole-3-carboxylic acid], the DNase inhibition result in assay [4] was “modestly inhibitory”.
As to `Cc1ccc(C)n1-c1cccc(C(=O)O)c1` [compound 128773, 3-(2,5-dimethyl-1H-pyr-rol-1-yl)benzoic acid], the DNase inhibition entry in assay [4] is “modestly inhibitory”.
For the compound `O=C(COc1ccc(I)cc1)c1c(O)cc(O)cc1O` [compound 140553, 2-(4-iodo-phenoxy)-1-(2,4,6-tri-hydroxyphenyl)etha-none], the DNase inhibition result in assay [4] is “little or no DNase inhibition”.
On the same count and under the same terms, as for `Cc1ccc(S(=O)(=O)Nc2ccc(Cc3ccc(NS(=O)(=O)c4ccc(C)cc4)c(C(=O)O)c3)cc2C(=O)O)cc1` [compound 180582, 3,3′-methylenebis(6-[4-meth-ylphenylsulfonyl]a-mino)benzoic acid], the entry is “little or no DNase inhibition”.
On to `O=C(N/N=C(\c1ccccc1)c1ccncc1)c1ccccc1` [compound 227726, N′-[phenyl(4-pyri-dinyl)meth-ylene]benzohydrazide], for which the DNase inhibition entry in assay [4] is given as “modestly inhibitory”. The “concentration tolerated in RT-PCR” value in assay [5] is given as “at least 1.3 mM”. For the same compound, the “Cycle Threshold” value in assay [5] (Input RNA = 1 ng, inhibitor 130 uM) is 26.01 and 26.08; in assay [5] (Input RNA = 1 ng, inhibitor 655 uM), 26.14 and 26.18; in assay [5] (Input RNA = 1 ng, inhibitor 1.3 mM) it was 26.08 and 26.18; in assay [5] (Input RNA = 10 ng, inhibitor 130 uM), 23.18 and 23.24; in assay [5] (Input RNA = 10 ng, inhibitor 655 uM), 23.01; in assay [5] (Input RNA = 10 ng, inhibitor 1.3 mM), 23.02 and 23.04. Besides, the “% Cleavage” value in assay [6] (inhibitor 100 uM) came to 45%; in assay [6] (inhibitor 524 uM) it was 43%; in assay [6] (inhibitor 1000 uM), 47%.
Take `N#CS.N=C(N)N` [guanidine thiocyanate]: the “effect on Specific Anti-RNase Cocktail” value in assay [1] is given as “more inhibitory against different antibodies”.
Consider `NCCCCNCCCN` [spermidine], for which the “effect on anti-RNase A, 1, and T1 activity of Specific Anti-RNase Cocktail” value in assay [1] (5 mM spermidine mixed with cocktail) is 5 Mm spermidine mixed with Specific Anti-RNase Cocktail enhanced anti-RNase.
As to NP-40, the “effect on action of Specific Anti-RNase Cocktail against RNase A, 1, and T1” value in assay [1] is “strengthened the action of Specific Anti-Rnase Cocktail against RNase A, 1, and T1”.
The same measure, in the same setting: as for Triton X-100, the entry is “strengthened the action of Specific Anti-Rnase Cocktail against RNase A, 1, and T1”.
Turning to cefsulodin [reference compound], the inhibitory constant (Ki) in assay [2] amounted to 201 µM.
Same read-out and setting: as for eriochrome black T [erio-chromeblack T], the figure is 50 µM.
Regarding “oligovinylsulfonic acid [OVA, reference compound]”, the “protection of RNA from degradation” value in assay [3] (6.25 mM OVA, pancreatic lysate 1:20,000, mouse liver total RNA, 25 C 4 min) is given as “help remedy RNA degradation”.
